Like-named read-outs stand apart in the source and are kept apart here.
What was measured:
Test in all cases: Minimum inhibitory concentration (MIC), standard method of the Japanese Chemotherapeutic Association
Proteus vulgaris = type: cell-based; conditions: read-out: Minimum Inhibitory Concentration (MIC)
[1] = system: Serratia marcenscens IFO 12648; type: cell-based
Escherichia coli N I H J = type: cell-based; conditions: Inoculum size: 10^6 cells/ml, weight concentration, read-out: Minimum Inhibitory Concentration (MIC)
[2] = system: Salmonella enteritidis IID 604; type: cell-based; conditions: Salmonella enterica, read-out: Minimum Inhibitory Concentration (MIC)
Proteus morganii IID 602 = type: cell-based; conditions: Morganella morganii
[3] = system: Klebsiella pneumoniae IID 865; type: cell-based; conditions: IID865, Inoculum size: 10^6 cells/ml, weight concentration, read-out: Minimum Inhibitory Concentration (MIC)
[4] = system: Shigella dysenteriae IID 633; conditions: IID633, read-out: Minimum Inhibitory Concentration (MIC)
Shigella sonnei IID 969 = type: cell-based; conditions: IID969, Inoculum size: 10^6 cells/ml, weight concentration
[5] = system: Pseudomonas aeruginosa IFO 13739; type: cell-based; conditions: IFO13739, Inoculum size: 10^6 cells/ml, weight concentration, read-out: Minimum Inhibitory Concentration (MIC)
[6] = system: Enterobacter aerogenes IID 5206; type: cell-based; conditions: Klebsiella aerogenes
[7] = system: Staphylococcus epidermidis ATCC12228; type: cell-based; conditions: ATCC12228, Inoculum size: 10^6 cells/ml, weight concentration, read-out: Minimum Inhibitory Concentration (MIC)
[8] = system: Staphylococcus aureus TERAJIMA; type: cell-based; conditions: read-out: Minimum Inhibitory Concentration (MIC)
[9] = system: Salmonella paratyphi IID 605; conditions: Salmonella enterica, IID605|PARATYPHI, read-out: Minimum Inhibitory Concentration (MIC)
Shigella boydii IID 627 = type: cell-based; conditions: IID627, Inoculum size: 10^6 cells/ml, weight concentration
Escherichia coli MEGAWA = type: cell-based; conditions: Escherichia coli; Inoculum size: 10^6 cells/ml; weight concentration; read-out: Minimum Inhibitory Concentration (MIC)
[10] = system: Enterobacter cloacae IID 977; type: cell-based; conditions: IID977, Inoculum size: 10^6 cells/ml, weight concentration, read-out: Minimum Inhibitory Concentration (MIC)
[11] = system: Pseudomonas aeruginosa IFO 3080; type: cell-based
[12] = system: Salmonella typhimurium IID 1000; type: cell-based; conditions: Salmonella enterica, read-out: Minimum Inhibitory Concentration (MIC)
[13] = system: Bacillus subtilis ATCC 6633; type: cell-based; conditions: ATCC6633, Inoculum size: 10^6 cells/ml, weight concentration, read-out: Minimum Inhibitory Concentration (MIC)
[14] = system: Staphylococcus aureus 209-P; type: cell-based; conditions: read-out: Minimum Inhibitory Concentration (MIC)
[15] = system: Pseudomonas pudita IID 5121; type: cell-based; conditions: IID5121, Inoculum size: 10^6 cells/ml, weight concentration, read-out: Minimum Inhibitory Concentration (MIC)
[16] = IFO12648, read-out: Minimum Inhibitory Concentration (MIC)
[17] = IID5206, Inoculum size: 10^6 cells/ml, weight concentration, read-out: Minimum Inhibitory Concentration (MIC)
[18] = Inoculum size: 10^6 cells/ml, weight concentration
[19] = IID602, Inoculum size: 10^6 cells/ml, weight concentration, read-out: Minimum Inhibitory Concentration (MIC)
[20] = IFO3080, read-out: Minimum Inhibitory Concentration (MIC)

SMILES | MIC (Proteus vulgaris) | MIC [1, 16] | MIC (Escherichia coli N I H J) | MIC [2] | MIC [3] | MIC [4] | MIC (Shigella sonnei IID 969) | MIC [5] | MIC [6, 17] | MIC [7] | MIC [8] | MIC [9] | MIC (Shigella boydii IID 627) | MIC (Escherichia coli MEGAWA) | MIC [10] | MIC [12, 18] | MIC [13] | MIC [14, 18] | MIC [15] | MIC (Proteus morganii IID 602; [19]) | other results
CC(=O)OCC1=C(C(=O)O)N2C(=O)C(NC(=O)[C@H](NC(=O)N3CCN(N=C4SCCS4)C3=O)c3ccccc3)C2SC1 (single isomer, unassigned) [KI-6203, sodium 7-{D-(-)-α-[(2-oxo-3-(1,3-dithiolan-2-imino)-imidazolidin-1-yl)-carboxamido]-phenylacetamido}-3-acetoxymethyl-3-cephem-4-carboxylate] | 6.25 µg/mL | 6.25 µg/mL | < 0.1 µg/mL | 6.25 µg/mL | 0.39 µg/mL | 0.78 µg/mL | 1.56 µg/mL | 12.5 µg/mL | 12.5 µg/mL | 0.39 µg/mL | 1.56 µg/mL | 6.25 µg/mL | 1.56 µg/mL | 25 µg/mL | 12.5 µg/mL | 3.13 µg/mL | 0.78 µg/mL | 0.78 µg/mL | 50 µg/mL |  | MIC (Proteus morganii IID 602; IID602, read-out: Minimum Inhibitory Concentration (MIC)): 6.25 µg/mL; MIC ([11]; IFO3080, Inoculum size: 10^6 cells/ml, weight concentration, read-out: Minimum Inhibitory Concentration (MIC)): 3.13 µg/mL
Cn1nnnc1SCC1=C(C(=O)O)N2C(=O)C(NC(=O)[C@H](NC(=O)N3CCN(N=C4SCCS4)C3=O)c3ccccc3)C2SC1 (single isomer, unassigned) [KI-6248, sodium 7-{D-(-)-α-[(2-oxo-3-(1,3-dithiolan-2-imino)-imidazolidin-1-yl)-carboxamido]-phenylacetamido}-3-[(1-methyl-1,2,3,4-tetrazol-5-yl)-thiomethyl]-3-cephem-4-carboxylate] | 1.56 µg/mL |  | < 0.1 µg/mL |  | < 0.1 µg/mL | 0.2 µg/mL | 0.78 µg/mL | 12.5 µg/mL | 3.13 µg/mL | 0.39 µg/mL |  | 1.56 µg/mL | 0.39 µg/mL | 6.25 µg/mL | 3.13 µg/mL | 0.78 µg/mL | 0.78 µg/mL | 0.78 µg/mL | 25 µg/mL | 3.13 µg/mL | MIC ([1]; IFO12648, Inoculum size: 10^6 cells/ml, weight concentration, read-out: Minimum Inhibitory Concentration (MIC)): 3.13 µg/mL; MIC [2, 18]: 3.13 µg/mL; MIC [8, 18]: 0.78 µg/mL; MIC [11, 20]: 1.56 µg/mL
Cn1nnnc1SCC1=C(C(=O)O)N2C(=O)C(NC(=O)[C@H](NC(=O)N3CCN(N=C4SCCS4)C3=O)c3ccc(O)cc3)C2SC1 (single isomer, unassigned) [KI-6269, sodium 7-{D-(-)-α-[(2-oxo-3-(1,3-dithiolan-2-imino)-imidazolidin-1-yl)-carboxamido]-4-hydroxyphenylacetamido}-3-[(1-methyl-1,2,3,4-tetrazol-5-yl)-thiomethyl]-3-cephem-4-carboxylate] |  | 1.56 µg/mL | < 0.1 µg/mL | 1.56 µg/mL | 0.2 µg/mL | < 0.1 µg/mL | 0.2 µg/mL | 6.25 µg/mL |  | 0.39 µg/mL | 1.56 µg/mL | 1.56 µg/mL | < 0.1 µg/mL | 6.25 µg/mL | 3.13 µg/mL |  | 0.78 µg/mL |  | 25 µg/mL | 3.13 µg/mL | MIC (Proteus vulgaris; [18]): 0.78 µg/mL; MIC ([6]; IID5206, read-out: Minimum Inhibitory Concentration (MIC)): 1.56 µg/mL; MIC [11, 20]: 1.56 µg/mL; MIC [12]: 1.56 µg/mL; MIC [14]: 1.56 µg/mL

— patent US4436904A, “Cephalosporins” (Kanto Ishi Pharmaceutical Co., Ltd., priority 1981, dated 1984)
